Data taken from PubChem BioAssay AID588643 (The Scripps Research Institute Molecular Screening Center, 2011).
Active and inactive are the calls of the source.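 The calls were made as follows: active = phospho-ERK protein band moved at least 30% up or down from the DMSO-only control band; inactive = the rest.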

What was measured:
[1] = tested on: HCT116 phospho-ERK1/2 western blot, 24 h; experiment: phospho-ERK1/2 protein level change, either direction, late-stage follow-up, counter-screen for KLF5 inhibitor project, cell-based, HCT116 colorectal carcinoma, chemiluminescent western blot (AID 588643); details: measured here: phospho-ERK fold change vs DMSO; at 10 µM; stronger effect = lower value
[2] = target: Mitogen-activated protein kinase 1 (Homo sapiens) (UniProt P28482); experiment: as above; details: HCT116 phospho-ERK1/2 western blot, 24 h; at 10 µM; stronger effect = higher value

inhibition [2]: -20% (inactive)
Compound: CN(C(=O)COC(=O)/C=C/c1cccc([N+](=O)[O-])c1)C1CCS(=O)(=O)C1 (configuration not stated)
fold change [1]: 1.2
